Experimental data published in patent US20240310368A1, “DETECTION KIT FOR CATECHOLAMINES AND METABOLITES THEREOF IN PLASMA/URINE AND DETECTION METHOD THEREOF” (Calibra Scientific, Inc., priority 2023, published 2024).
Each block holds one molecule with its values, some of them ahead of it.

Assay: Acceleration test of plasma samples with stabilizers (30° C. for 1.5 days, against control plasma stored at −95° C. to −65° C.), LC-MS/MS Area/IS Area
Method: Samples were collected in EDTA-anticoagulant blood collection tubes and then rapidly subjected to […] centrifugation at 2-8° C. to separate plasma. 0.95 mL of the plasma was transferred into centrifuge tubes. After 50 μL of the stabilizer was added for uniform mixing, the plasma samples were stored by refrigeration or freezing.
• (1) 500 μL of plasma/urine samples to be tested were taken, and 50 μL of the internal standard solution and 500 μL of the buffer solution were sequentially added for vertex mixing to obtain diluted samples. • (2) The magnetic medium composite material suspension was subjected to full vortex treatment to reach a suspension state, and then subsequent operation was performed. • (3) Different reagents were added into wells of a preprocessing plate according to the follow operation: adding 200 μL of the magnetic medium composite material suspension in column 1, adding 500 μL of the balance solution in column 2, adding 850 μL of the diluted samples in column 3, adding 500 μL of the balance solution in column 4, adding 200 μL of a rinsing solution in column 5, and adding 100 μL of the elution solution in column 6. • (4) An extraction operation procedure was carried out, as shown in Table 5.
Each group of the plasma samples were stored at 30° C. for 1.5 days, and plasma without addition of any compounds stored at −95° C. to −65° C. was used as a control. […] The stabilizing effect of the single-component stabilizers on the plasma samples was investigated.
The stabilizers were mixed with plasma (the volume ratio of the stabilizers to plasma samples was 1:19), and high concentration plasma samples and low concentration plasma samples were prepared by the method provided in Example 1.
With plasma stored at −95° C. to −65° C. as a control, the above plasma samples were separately stored at 30° C. for 1.5 days to investigate the stability. […]

[1] = plasma at a high concentration level, plasma containing 50 μg/mL of the component, control plasma 0.624
[2] = plasma at a high concentration level, plasma containing 50 μg/mL of the component, control plasma 1.522
[3] = plasma at a high concentration level, plasma containing 50 μg/mL of the component, control plasma 2.27
[4] = plasma at a high concentration level, plasma containing 200 μg/mL of the component, control plasma 0.624
[5] = plasma at a high concentration level, plasma containing 200 μg/mL of the component, control plasma 1.522
[6] = plasma at a high concentration level, plasma containing 200 μg/mL of the component, control plasma 2.27
[7] = plasma at a low concentration level, plasma containing 50 μg/mL of the component, control plasma 0.079
[8] = plasma at a low concentration level, plasma containing 50 μg/mL of the component, control plasma 0.219
[9] = plasma at a low concentration level, plasma containing 50 μg/mL of the component, control plasma 0.233
[10] = plasma at a low concentration level, plasma containing 200 μg/mL of the component, control plasma 0.079
[11] = plasma at a low concentration level, plasma containing 200 μg/mL of the component, control plasma 0.219
[12] = plasma at a low concentration level, plasma containing 200 μg/mL of the component, control plasma 0.233

Ratio (Area/IS Area) E (plasma at a high concentration level, plasma containing 500 μg/mL of the component, control plasma 0.624): 0
Ratio (Area/IS Area) NE (plasma at a high concentration level, plasma containing 500 μg/mL of the component, control plasma 1.522): 0
Ratio (Area/IS Area) DA (plasma at a high concentration level, plasma containing 500 μg/mL of the component, control plasma 2.27): 0
Ratio (Area/IS Area) E (plasma at a high concentration level, plasma containing 2,000 μg/mL of the component, control plasma 0.624): 0
Ratio (Area/IS Area) NE (plasma at a high concentration level, plasma containing 2,000 μg/mL of the component, control plasma 1.522): 0
Ratio (Area/IS Area) DA (plasma at a high concentration level, plasma containing 2,000 μg/mL of the component, control plasma 2.27): 0
Ratio (Area/IS Area) E (plasma at a low concentration level, plasma containing 500 μg/mL of the component, control plasma 0.079): 0
Ratio (Area/IS Area) NE (plasma at a low concentration level, plasma containing 500 μg/mL of the component, control plasma 0.219): 0
Ratio (Area/IS Area) DA (plasma at a low concentration level, plasma containing 500 μg/mL of the component, control plasma 0.233): 0
Ratio (Area/IS Area) E (plasma at a low concentration level, plasma containing 2,000 μg/mL of the component, control plasma 0.079): 0
Ratio (Area/IS Area) NE (plasma at a low concentration level, plasma containing 2,000 μg/mL of the component, control plasma 0.219): 0
Ratio (Area/IS Area) DA (plasma at a low concentration level, plasma containing 2,000 μg/mL of the component, control plasma 0.233): 0
Structure (SMILES): O=C(O)CC(O)(CC(=O)O)C(=O)O [citric acid]

Structure (SMILES): O=C(O)CN(CCN(CC(=O)O)CC(=O)O)CC(=O)O.[Na].[Na] [disodium EDTA, disodium ethylenediaminetetraacetic acid]
Ratio (Area/IS Area) E [1]: 0
Ratio (Area/IS Area) NE [2]: 0
Ratio (Area/IS Area) DA [3]: 0
Ratio (Area/IS Area) E [4]: 0
Ratio (Area/IS Area) NE [5]: 0
Ratio (Area/IS Area) DA [6]: 0
Ratio (Area/IS Area) E [7]: 0
Ratio (Area/IS Area) NE [8]: 0
Ratio (Area/IS Area) DA [9]: 0
Ratio (Area/IS Area) E [10]: 0
Ratio (Area/IS Area) NE [11]: 0
Ratio (Area/IS Area) DA [12]: 0
stabilizing effect on catecholamines in plasma (single components as stabilizers): no obvious stabilizing effect

Ratio (Area/IS Area) E (plasma at a high concentration level, plasma containing 0.5% of the acid, control plasma 0.624): 0
Ratio (Area/IS Area) NE (plasma at a high concentration level, plasma containing 0.5% of the acid, control plasma 1.522): 0
Ratio (Area/IS Area) DA (plasma at a high concentration level, plasma containing 0.5% of the acid, control plasma 2.27): 0
Ratio (Area/IS Area) E (plasma at a high concentration level, plasma containing 2.0% of the acid, control plasma 0.624): 0
Ratio (Area/IS Area) NE (plasma at a high concentration level, plasma containing 2.0% of the acid, control plasma 1.522): 0
Ratio (Area/IS Area) DA (plasma at a high concentration level, plasma containing 2.0% of the acid, control plasma 2.27): 0
Ratio (Area/IS Area) E (plasma at a low concentration level, plasma containing 0.5% of the acid, control plasma 0.079): 0
Ratio (Area/IS Area) NE (plasma at a low concentration level, plasma containing 0.5% of the acid, control plasma 0.219): 0
Ratio (Area/IS Area) DA (plasma at a low concentration level, plasma containing 0.5% of the acid, control plasma 0.233): 0
Ratio (Area/IS Area) E (plasma at a low concentration level, plasma containing 2.0% of the acid, control plasma 0.079): 0
Ratio (Area/IS Area) NE (plasma at a low concentration level, plasma containing 2.0% of the acid, control plasma 0.219): 0
Ratio (Area/IS Area) DA (plasma at a low concentration level, plasma containing 2.0% of the acid, control plasma 0.233): 0
Structure (SMILES): O=P(O)(O)O [phosphoric acid]

Ratio (Area/IS Area) E [1]: 0
Ratio (Area/IS Area) NE [2]: 0
Ratio (Area/IS Area) DA [3]: 0
Ratio (Area/IS Area) E [4]: 0
Ratio (Area/IS Area) NE [5]: 0
Ratio (Area/IS Area) DA [6]: 0
Ratio (Area/IS Area) E [7]: 0
Ratio (Area/IS Area) NE [8]: 0
Ratio (Area/IS Area) DA [9]: 0
Ratio (Area/IS Area) E [10]: 0
Ratio (Area/IS Area) NE [11]: 0
Ratio (Area/IS Area) DA [12]: 0
Structure (SMILES): O=S([O-])S(=O)(=O)[O-].[Na+].[Na+] [sodium pyrosulfite]
